Test results published in US9181185B2, “Heteroaryl compounds as sodium channel blockers” (Purdue Pharma L.P., priority 2011, dated 2015).
Read-outs that look alike come from different tables or passages of the source.

Experiments:
human Nav1.7 = human Nav1.7 (Homo sapiens (Human), UniProt Q15858); assay: FLIPR or FLIPR TETRA sodium dye assay with KCl and test article pre-incubation; assay type: cell-based
hNav1.7 = hNav1.7 (Homo sapiens (Human), UniProt Q15858); assay: Electrophysiology (EP) assay, whole-cell patch clamp; assay type: cell-based; conditions: hNav1.7 HEK-293 cells; for Kd: Kf (method describes resting block dissociation constant Kr), read-out: EP Nav 1.7 Kf (μM) ± SEM; for Ki: affinity for inactivated state, read-out: EP Nav 1.7 Ki (μM) ± SEM
Protocol: Cells: The hNav1.7 expressing HEK-293 cells were plated on 35 mm culture dishes pre-coated with poly-D-lysine in standard DMEM culture media (Mediatech, Inc., Herndon, Va.) and incubated in a 5% CO2 incubator at 37° C. Cultured cells were used approximately 12-48 hours after plating.
Electrophysiology: On the day of experimentation, the 35 mm dish was placed on the stage of an inverted microscope equipped with a perfusion system that continuously perfuses the culture dish with fresh recording media. A gravity driven superfusion system was used to apply test solutions directly to the cell under evaluation. This system consists of an array of glass pipette glass connected to a motorized horizontal translator. The outlet of the shooter was positioned approximately 100 μm from the cell of interest.
Whole cell currents were recorded using the whole-cell patch clamp configuration using an Axopatch 200B amplifier (Axon Instruments, Foster City Calif.), 1322A A/D converter (Axon Instruments) and pClamp software (v. 8; Axon Instruments) and stored on a personal computer. Gigaseals were formed and the whole-cell configuration was established in voltage clamp mode, and membrane currents generated by hNav1.7 were recorded in gap-free mode. Borosilicate glass pipettes have resistance values between 1.5 and 2.0 MΩ when filled with pipette solution and series resistance (<5 MΩ) was compensated 75-80%. Signals were sampled at 50 kHz and low pass filtered at 3 kHz.
Voltage Protocols: After establishing the whole-cell configuration in voltage clamp mode, voltage protocols were run to establish the 1) test potential, 2) holding potential, and 3) the conditioning potential for each cell.
After establishing the whole-cell configuration in voltage clamp mode, a standard I-V protocol was run to determine the potential at which the maximal current (Imax) is elicited. This potential was the test potential (Vt). To determine a conditioning potential at which 100% of channels were in the inactivated state, a standard steady-state inactivation (SSIN) protocol was run using a series of fifteen 100 ms-long depolarizing prepulses, incrementing in 10 mV steps, immediately followed by a 5 ms testing pulse, Vt, to Vmax. This protocol also permitted determination of the holding potential at which all channels are in the resting state.
For compounds causing significant retardation of recovery from inactivation, an estimate of the affinity for the inactivated state of the channel (Ki) was generated using the following protocol. From the negative, no residual inactivation, holding potential, the cell was depolarized to the conditioning voltage for 2-5 seconds, returned to the negative holding potential for 10-20 ms to relieve fast inactivation and then depolarized to the test potential for ˜15 ms. This voltage protocol was repeated every 10-15 seconds, first to establish a baseline in the absence of the test compound, then in the presence of the test compound.
After a stable baseline was established, the test compound was applied and block of the current elicited by the test pulse assessed. In some cases, multiple cumulative concentrations were applied to identify a concentration that blocked between 40-60% of this current. Washout of the compound was attempted by superfusing with control solution once steady-state block was observed. An estimate of the Ki was calculated as follows: Ki=[drug]*{FR/(1−FR)}, Eq. 1 where [drug] is the concentration of a drug, and FR=I(after drug)/l(control), Eq. 2 where I is the peak current amplitude. If multiple concentrations were used, Ki was determined from the fit of a logistic equation to FRs plotted against corresponding drug concentrations.
In the alternative, the voltage clamp protocol to examine hNav1.7 currents was as follows. […]

[1] = recombinant HEK293 cells expressing human Nav1.7, CoroNa Green sodium dye, veratridine + scorpion venom, read-out: FLIPR Nav 1.7 IC50 (μM) ± SEM
[2] = read-out: FLIPR Nav 1.7 IC50 (μM) ± SEM

Chain of hNav1.7 (Q15858 other isoform, or with tags, fused parts or gaps): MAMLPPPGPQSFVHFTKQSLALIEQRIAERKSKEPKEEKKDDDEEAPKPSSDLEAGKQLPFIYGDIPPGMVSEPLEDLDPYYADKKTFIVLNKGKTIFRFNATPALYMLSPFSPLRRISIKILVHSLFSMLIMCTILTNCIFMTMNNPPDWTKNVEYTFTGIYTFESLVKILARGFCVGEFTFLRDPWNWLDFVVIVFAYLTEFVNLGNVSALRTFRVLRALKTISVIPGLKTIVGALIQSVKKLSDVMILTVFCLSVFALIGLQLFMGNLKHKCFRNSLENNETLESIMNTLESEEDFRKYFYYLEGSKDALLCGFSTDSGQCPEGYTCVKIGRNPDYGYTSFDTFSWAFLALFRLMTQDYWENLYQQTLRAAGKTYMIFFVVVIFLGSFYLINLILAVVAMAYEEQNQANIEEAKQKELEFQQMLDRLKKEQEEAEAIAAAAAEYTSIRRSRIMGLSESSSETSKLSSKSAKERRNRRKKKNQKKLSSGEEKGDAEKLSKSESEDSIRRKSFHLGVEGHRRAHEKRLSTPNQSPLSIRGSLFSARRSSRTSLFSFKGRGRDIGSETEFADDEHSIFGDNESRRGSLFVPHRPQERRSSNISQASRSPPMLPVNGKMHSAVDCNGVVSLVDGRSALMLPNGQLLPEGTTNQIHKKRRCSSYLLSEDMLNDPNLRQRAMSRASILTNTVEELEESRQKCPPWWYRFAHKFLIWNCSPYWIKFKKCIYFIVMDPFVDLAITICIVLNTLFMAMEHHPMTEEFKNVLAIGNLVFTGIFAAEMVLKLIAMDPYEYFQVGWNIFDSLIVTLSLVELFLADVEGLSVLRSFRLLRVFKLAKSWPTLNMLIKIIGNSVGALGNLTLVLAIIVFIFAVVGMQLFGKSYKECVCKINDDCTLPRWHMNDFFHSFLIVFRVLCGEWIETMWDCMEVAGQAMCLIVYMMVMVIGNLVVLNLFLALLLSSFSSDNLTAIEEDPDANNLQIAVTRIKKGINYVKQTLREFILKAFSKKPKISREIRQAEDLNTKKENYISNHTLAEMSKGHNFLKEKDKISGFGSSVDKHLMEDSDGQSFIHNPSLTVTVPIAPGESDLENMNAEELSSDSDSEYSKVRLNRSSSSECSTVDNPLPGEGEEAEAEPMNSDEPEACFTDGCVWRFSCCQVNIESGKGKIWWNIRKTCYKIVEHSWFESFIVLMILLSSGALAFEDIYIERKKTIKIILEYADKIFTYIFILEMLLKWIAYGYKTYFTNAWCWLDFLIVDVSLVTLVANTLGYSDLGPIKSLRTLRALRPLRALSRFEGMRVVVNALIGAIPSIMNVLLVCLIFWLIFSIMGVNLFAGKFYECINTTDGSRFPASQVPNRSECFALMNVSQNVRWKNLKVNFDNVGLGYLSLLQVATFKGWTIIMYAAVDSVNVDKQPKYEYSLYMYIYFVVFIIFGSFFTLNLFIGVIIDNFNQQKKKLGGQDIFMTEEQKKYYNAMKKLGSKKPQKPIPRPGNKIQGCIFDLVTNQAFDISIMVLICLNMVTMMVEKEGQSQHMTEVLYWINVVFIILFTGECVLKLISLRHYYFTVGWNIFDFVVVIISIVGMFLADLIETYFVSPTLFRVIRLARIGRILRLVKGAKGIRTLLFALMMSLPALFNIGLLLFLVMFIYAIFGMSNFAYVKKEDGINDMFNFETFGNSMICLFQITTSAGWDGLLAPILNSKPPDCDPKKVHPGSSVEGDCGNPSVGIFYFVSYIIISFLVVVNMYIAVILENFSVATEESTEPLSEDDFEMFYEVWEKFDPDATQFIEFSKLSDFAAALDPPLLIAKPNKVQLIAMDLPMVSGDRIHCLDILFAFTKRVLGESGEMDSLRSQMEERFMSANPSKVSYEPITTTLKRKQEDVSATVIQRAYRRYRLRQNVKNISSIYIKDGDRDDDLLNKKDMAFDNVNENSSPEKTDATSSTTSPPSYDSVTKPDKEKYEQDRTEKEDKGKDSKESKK
Chain of human Nav1.7 (Q15858 other isoform, or with tags, fused parts or gaps): as above

Row | Structure (SMILES) | IC50 (human Nav1.7; [1]) [µM] | IC50 (human Nav1.7; [2]) [µM] | also measured
1 | N#Cc1ccc(Oc2ccc(-c3cccc([C@H](O)[C@@H](O)C(N)=O)n3)cc2)cc1 | 0.69 ± 0.071 |  | 
2 | NC(=O)[C@H](O)[C@@H](O)c1cccc(-c2ccc(Oc3ccc(Cl)nc3)cc2)n1 | 0.804 ± 0.044 |  | 
3 | CNC(=O)[C@@H](O)[C@H](O)c1cn(-c2ccc(Oc3ccc(C(F)(F)F)cn3)cc2)c2ccccc12 [Compound 7, (2S,3R)-2,3-Dihydroxy-N-methyl-3-(1-(4-((5-(trifluoromethyl)pyridin-2-yl)oxy)phenyl)-1H-indol-3-yl)propanamide] | 0.282 ± 0.002 |  | 
4 | NC(=O)[C@@H](O)[C@H](O)c1cccc(-c2ccc(Oc3ccc(C(F)(F)F)cn3)cc2)n1 | 0.711 ± 0.05 |  | 
5 | N#Cc1ccc(Oc2ccc(-c3cccc([C@H](O)[C@@H](O)C(N)=O)n3)cc2)cc1C(F)(F)F | 0.489 ± 0.04 |  | 
6 | NC(=O)[C@@H](O)[C@H](O)c1cccc(-c2ccc(Oc3ccc(Cl)cn3)cc2)n1 |  | 1.19 ± 0.074 | 
7 | CCOC(=O)[C@@H](O)[C@H](O)c1cn(-c2ccc(Oc3ccc(C(F)(F)F)cn3)cc2)c2ccccc12 [Compound 6, (2S,3R)-Ethyl 2,3-dihydroxy-3-(1-(4-((5-(trifluoromethyl)pyridin-2-yl)oxy)phenyl)-1H-indol-3-yl)propanoate] | 0.152 ± 0.031 |  | 
8 | CCOC(=O)[C@@H](O)[C@H](O)c1cccc(-c2ccc(Oc3ccc(C(F)(F)F)c(C#N)c3)cc2)n1 [Compound 14, (2S,3R)-Ethyl 3-(6-(4-(3-cyano-4-(trifluoromethyl)phenoxy)phenyl)pyridin-2-yl)-2,3-dihydroxypropanoate] |  |  | IC50 (human Nav1.7): 0.246 ± 0.031 µM
9 | NC(=O)[C@H](O)[C@@H](O)c1cn(-c2ccc(Oc3ccc(C(F)(F)F)cn3)cc2)c2ccccc12 [Compound 5, (2R,3S)-2,3-Dihydroxy-3-(1-(4-((5-(trifluoromethyl)pyridin-2-yl)oxy)phenyl)-1H-indol-3-yl)propanamide] |  | 0.314 ± 0.038 | 
10 | NC(=O)[C@@H](O)[C@H](O)c1cn(-c2ccc(Oc3ccc(C(F)(F)F)cn3)cc2)c2ccccc12 [Compound 8, (2S,3R)-2,3-Dihydroxy-3-(1-(4-((5-(trifluoromethyl)pyridin-2-yl)oxy)phenyl)-1H-indol-3-yl)propanamide] |  | 0.193 ± 0.049 | 
11 | NC(=O)[C@H](O)[C@@H](O)c1cccc(-c2ccc(Oc3ccc(C(F)(F)F)cn3)cc2)n1 | 1.69 ± 0.019 |  | 
12 | NC(=O)[C@@H](O)[C@H](O)c1cccc(-c2ccc(Oc3ccc(Cl)nc3)cc2)n1 | 0.376 ± 0.057 |  | 
13 | NC(=O)[C@H](O)[C@@H](O)c1ccnc(-c2ccc(Oc3ccc(F)cc3)cc2)n1 [Compound 26, (2R,3S)-3-(2-(4-(4-fluorophenoxy)phenyl)pyrimidin-4-yl)-2,3-dihydroxypropanamide] | 0.625 ± 0.058 |  | Kd (hNav1.7): 97.9 ± 23.1 µM; Ki (hNav1.7): 2.26 ± 0.61 µM
14 | NC(=O)[C@@H](O)[C@H](O)c1cccc(-c2ccc(Oc3ccc(F)cc3)cc2)n1 |  | 1.41 ± 0.281 | 
15 | NC(=O)[C@H](O)[C@@H](O)c1cccc(-c2ccc(Oc3ccc(F)cc3)cc2)n1 |  | 1.84 ± 0.309 | 
16 | N#Cc1cc(Oc2ccc(-c3cccc([C@H](O)[C@@H](O)C(N)=O)n3)cc2)ccc1C(F)(F)F [Compound 19, (2R,3S)-3-(6-(4-(3-Cyano-4-(trifluoromethyl)phenoxy)phenyl)pyridin-2-yl)-2,3-dihydroxypropanamide] |  | 0.244 ± 0.05 | Kd (hNav1.7): 17.1 ± 4.24 µM; Ki (hNav1.7): 0.347 ± 0.07 µM
17 | NC(=O)[C@H](O)[C@@H](O)c1cccc(-c2ccc(Oc3ccc(C(F)(F)F)cc3)cc2)n1 | 0.383 ± 0.072 |  | 
18 | N#Cc1cc(Oc2ccc(-c3cccc([C@@H](O)[C@H](O)C(N)=O)n3)cc2)ccc1C(F)(F)F [Compound 15, (2S,3R)-3-(6-(4-(3-Cyano-4-(trifluoromethyl)phenoxy)phenyl)pyridin-2-yl)-2,3-dihydroxypropanamide] |  | 0.304 ± 0.022 | Kd (hNav1.7): 32.9 ± 6.89 µM; Ki (hNav1.7): 0.917 ± 0.05 µM
19 | N#Cc1ccc(Oc2ccc(-c3cccc([C@@H](O)[C@H](O)C(N)=O)n3)cc2)cc1C(F)(F)F | 0.461 ± 0.045 |  | 
20 | NC(=O)[C@H](O)[C@@H](O)c1cccc(-c2ccc(Oc3ccc(Cl)cn3)cc2)n1 |  | 1.44 ± 0.078 | 
21 | N#Cc1ccc(Oc2ccc(-c3cccc([C@@H](O)[C@H](O)C(N)=O)n3)cc2)cc1 | 0.262 ± 0.017 |  | 
22 | NC(=O)[C@@H](O)[C@H](O)c1cccc(-c2ccc(Oc3ccc(C(F)(F)F)cc3)cc2)n1 | 0.13 ± 0.025 |  | 
